{"source": "patent US6762294B2", "about": "“Polynucleotides encoding polymorphic human GABAA receptor α-6 subunit” (The United States of America as represented by the …, priority 1999, dated 2004)", "key": {"[1]": {"test_system": "children of alcoholics (COAs)", "assay": "Smooth pursuit eye movement task after intravenous diazepam", "type": "in vivo, human", "details": "COAs having the Pro385Ser allele relative to COAs having the Pro385 genotype", "protocol": "Initially, the saccadic eye movement velocity and smooth pursuit eye movement gain was measured in the 56 COAs tested. Two baseline measurements for each variable were taken and averaged. The differences from this baseline were then evaluated at set time points after each of four diazepam doses. The data points were used to determine, by a trapezoidal technique, the integrated area under the resulting curve. The area under the curve for the dependent variable was then divided by the area under the curve for plasma diazepam levels to correct for individual variability in diazepam levels. The ratios of the areas under the curves for COAs with the Ser385 homozygous genotype and the Pro/Ser heterozygous genotype were then compared by t-test. […] For the G1031C genotype, a one-way ANOVA was used for assessing association.\nCOAs were tested on two days about one week apart. Intravenous catheters were inserted into antecubital veins in each of the subjects arms. One intravenous line was used for drawing blood while the other was used for administration of either diazepam or placebo. […]\nOn each testing day, responses were measured at 12 separate time points: twice at baseline, once after each of the four doses, and at each of six 30 minute intervals after the last dose for a period spanning three hours. Eye movements were evaluated at each time point. […]"}, "[2]": {"test_system": "sons of alcoholics and controls (men)", "source_text": "As part of a larger study, 41 men, were selected from among the first 113 completed 15-year follow-ups in a prospective study. […] Seventeen subjects whose low level of response to ethanol (LR) were in the lower third were compared on five polymorphisms of four genes with 24 men whose reactions to alcohol had been above the median.\nFor this pilot study, blood samples were taken from the first 41 appropriate consecutive men among the first 113 who completed 15-year follow-ups in an ongoing study. In order to identify subjects who were clearly low on LR, the men were selected to represent the two poles of LR. […] The alcohol challenges, evaluated changes from baseline for subjective feeling of intoxication, standing steadiness, and hormones after drinking 0.75 ml/kg of ethanol. (Schuckit and Gold, Arch Gen Psychiatry 45:211-216 (1986). The overall LR was evaluated as the change from baseline (pre-alcohol) to the time of peak blood alcohol concentration (BAC) (60 minute values) following alcohol consumption."}}, "note": "Where two headings read alike, the source gives them in different places."}
{"smiles": "CN1C(=O)CN=C(c2ccccc2)c2cc(Cl)ccc21", "note": "[diazepam]", "values": [{"measurement": "Sensitivity to diazepam (average smooth pursuit eye movement gain)", "setting": "[1]", "result": "reduced sensitivity"}]}
{"smiles": "CCO", "note": "[ethanol]", "values": [{"measurement": "mean (±SD) LR", "setting": "[2]; 0.75 ml/kg ethanol, 5-HT2A His452Tyr genotype His-His", "result": "−.44"}, {"measurement": "mean (±SD) LR", "setting": "[2]; 0.75 ml/kg ethanol, 5-HT2A His452Tyr genotype His-Tyr", "result": "−.20"}, {"measurement": "mean (±SD) LR", "setting": "[2]; 0.75 ml/kg ethanol, 5-HT2A T102C genotype CC", "result": "−.46"}, {"measurement": "mean (±SD) LR", "setting": "[2]; 0.75 ml/kg ethanol, 5-HT2A T102C genotype TC", "result": "−.31"}, {"measurement": "mean (±SD) LR", "setting": "[2]; 0.75 ml/kg ethanol, 5-HT2A T102C genotype TT", "result": "−.71"}, {"measurement": "mean (±SD) LR", "setting": "[2]; 0.75 ml/kg ethanol, 5-HT2C Cys23Ser genotype Cys", "result": "−.39"}, {"measurement": "mean (±SD) LR", "setting": "[2]; 0.75 ml/kg ethanol, 5-HT2C Cys23Ser genotype Ser", "result": "−.73"}, {"measurement": "mean (±SD) LR", "setting": "[2]; 0.75 ml/kg ethanol, 5-HT Transporter genotype SL", "result": "−.30"}, {"measurement": "mean (±SD) LR", "setting": "[2]; 0.75 ml/kg ethanol, 5-HT Transporter genotype SS", "result": "−.00"}, {"measurement": "mean (±SD) LR", "setting": "[2]; 0.75 ml/kg ethanol, GABAA α6 genotype Pro/Pro", "result": "−.27"}, {"measurement": "mean (±SD) LR", "setting": "[2]; 0.75 ml/kg ethanol, GABAA α6 genotype Pro/Ser", "result": "−1.01"}, {"measurement": "mean LR", "setting": "[2]; 0.75 ml/kg ethanol, combined SL and SS 5-HTT genotype groups", "result": "0.16±0.75"}, {"measurement": "proportion of subjects whose LR fell into the lowest third", "setting": "[2]; 5-HTT genotype LL", "result": 71.4, "unit": "%"}, {"measurement": "proportion of subjects whose LR fell into the lowest third", "setting": "[2]; 5-HTT genotype SL", "result": 31.6, "unit": "%"}, {"measurement": "proportion of subjects whose LR fell into the lowest third", "setting": "[2]; 5-HTT genotype SS", "result": 12.5, "unit": "%"}, {"measurement": "LR at age 20", "setting": "[2]; LL/PP genotypes", "result": "−0.74±1.13"}, {"measurement": "proportion in the lowest third in response to alcohol", "setting": "[2]; Pro385 homozygotes", "result": 35.3, "unit": "%"}, {"measurement": "LR at age 20", "setting": "[2]; SL/PP genotypes", "result": "−0.13±0.88"}, {"measurement": "LR at age 20", "setting": "[2]; SL/PS genotypes", "result": "0.59±1.11"}, {"measurement": "LR at age 20", "setting": "[2]; SS/PP genotypes", "result": "0.03±0.45"}, {"measurement": "LR at age 20", "setting": "[2]; combination of LL 5-HTT and Ser385 GABAA α6 genotypes", "result": "−1.29±0.53"}, {"measurement": "Sensitivity to ethanol", "setting": "[2]; individuals with the Pro385Ser polymorphism compared with the wild-type polymorphism", "result": "reduced sensitivity"}, {"measurement": "proportion in the lowest third in response to alcohol", "setting": "[2]; those with Ser385 (Pro/Ser)", "result": 71.4, "unit": "%"}]}
